Results published in patent publication US9952300B2, “Dynamic contrast enhanced MRI method and agents for the assessment of the macromolecular transport within pathologic tissues” (BRACCO IMAGING S.P.A., priority 2012, dated 2018).
Marks after values point to notes of the source that are not given here.

Tested on: A431 human epidermoid carcinoma xenografts
Assay: DCE-MRI with B22956/1 in A431 xenografts 24 h after PTX or vehicle (Example 5)
Assay type: in vivo, NCR athymic nude mice
Experimental: Human epidermoid carcinoma cell line (A431) (supplied by ATCC) were cultured in DMEM (Dulbecco's Modified Eagle Medium) High Glucose medium (4.5 g/L glucose) (Sigma-Aldrich, Steinheim, Germany), supplemented with 10% heat-inactivated foetal bovine serum (Lonza, Verviers, Belgium), 2 mM glutamine (Lonza, Verviers, Belgium), 100 IU/mL penicillin and 100 μg/mL streptomycin (Lonza, Verviers, Belgium) and maintained in a humidified atmosphere with 5% CO2 at 37° C. Exponentially growing cells were harvested and washed two times with PBS. Two million A431 cells were resuspended in 0.1 mL PBS and injected subcutaneously in the right and left flank of each of the 6 week old female mice. Tumors development were followed daily after inoculation, initially by palpation and by caliper once the mass will be established, until the day of the sacrifice. Mice were distributed randomly into 2 groups (Treated and Control) on the day of initial drug treatment when the average tumor diameter reached 7-8 mm, measured by caliper.
Paclitaxel (PTX) (Indena S.p.A., Milan, Italy): PTX solution was prepared in 50% Cremophor EL and 50% ethanol as described in Example 4 and further diluted in saline immediately before use to a final concentration of 2 mg/mL. PTX was administered intravenously (i.v., singular administration) at a dose of 20 mg/kg.
To this extent, 8 mice were divided into 2 groups; 2 animals of each of the two obtained groups were treated with PTX and 2 with vehicle (CTRL). Treatments started 14 days after the tumor implant, when the tumor reached a diameter in the range 7-8 mm, measured by caliper. The animals were administered with PTX or with CTRL at day 14 from the tumor implant (considered as DAY1). 24 hours after the treatment with PTX or CTRL (DAY2) each animal was injected with B22956/1 (used as non-limiting example of contrast agent according to the invention) and imaged with DCE-MRI. MRI imaging was performed pre-contrast and at different time points post-contrast agents administration. […] At DAY3 all the mice were imaged in vivo by Optical Imaging (01); then FITC-Albumin (10 mg/mL) was injected and 5 minutes later the animals were sacrificed. Tumors were excised and a second Optical Imaging acquisition was performed ex vivo. Finally tumors were prepared for the histological examination.
B22956/1, (Bracco Imaging S.p.A., obtained as above referred) was used as MRI contrast agent (CA). B22956/1 was intravenously injected at the dose of 100 μmol/kg, with an administration volume of 4 mL/kg.
24 hours after the treatment with PTX or CTRL each animal was injected with the CA (B22956/1) and imaged with DCE-MRI. The contrast agent was injected intravenously at an injection rate of about 1 mL/min through a catheter placed in the tail vein of the animal. For MR imaging experiments, animals were pre-anaesthetized with isofluorane gas (about 1%) in a mixture of 33% O2 and 66% N2O and the anesthesia was then maintained by adjustment of gas level in function of breath rate. MRI imaging was performed at different time points post-contrast agents administration. In particular, pre-contrast coronal and axial Rare T2-weighted anatomical images were acquired with the optimized parameters for high resolution with a good contrast, to detect the tumour mass. 3D FLASH images (Fast Low Angle Shot; TR about 6-7 milliseconds) with variable flip angle θ (FA=5-90° were acquired before contrast agent injection to estimate the tumour and muscle longitudinal relaxation time by using matrix 128×128×8, slice thickness ˜1.5 mm, FOV ˜3.0×3.0 cm. The same sequences (FA=20°, TR about 6-7 milliseconds) were then acquired to follow CA dynamic in tumor and blood vessels after CA i.v. injection. Flow artifacts were avoided by placing two thick saturation bands just above and below the measured slices. […]

[1] = A431 tumors 24 h after PTX 20 mg/kg i.v., mean of 8 tumors

extravasation of the contrast agent within the first minute after injection (mouse, in vivo)	Compound	AUC10.20 (of B22956/1), Mean (A431 tumors 24 h after PTX 20 mg/kg i.v., 10 to 20 min post injection, mean of 8 tumors)	AUC20.30 (of B22956/1), Mean (A431 tumors 24 h after PTX 20 mg/kg i.v., 20 to 30 min post injection, mean of 8 tumors)	ktrans (of B22956/1), Mean (A431 tumors 24 h after PTX 20 mg/kg i.v., B22956/1 100 μmol/kg, mean of 8 tumors)	AVGENH (of B22956/1), Mean [1]	EARLYAUCRATIO (of B22956/1), Mean [1]	IAUC1 (of B22956/1), Mean [1]	LATEAUCRATIO (of B22956/1), Mean [1]	fPV (of B22956/1), Mean [1]	kep (of B22956/1), Mean [1]
negligible	C[C@H](CCC(=O)[O-])[C@H]1CC[C@H]2[C@@H]3CC[C@@H]4C[C@@H](NC(=O)CC[C@@H](C(=O)[O-])N(CCN(CC(=O)[O-])CC(=O)[O-])CCN(CC(=O)[O-])CC(=O)[O-])CC[C@]4(C)[C@H]3C[C@H](O)[C@]12C.[Gd+3].[Na+].[Na+].[Na+] [B22956/1, Gadocoletic acid trisodium salt]	–	–	–	–	–	–	–	–	–
–	CC(=O)O[C@H]1C(=O)[C@@]2(C)[C@H]([C@H](OC(=O)c3ccccc3)[C@]3(O)C[C@H](OC(=O)[C@H](O)[C@@H](NC(=O)c4ccccc4)c4ccccc4)C(C)=C1C3(C)C)[C@]1(OC(C)=O)CO[C@@H]1C[C@@H]2O [PTX, Paclitaxel]	27*	25.3**	0.0255*	54*	0.036	0.8	1.14**	0.038	0.112
